Results reported in patent publication US5504212A, “Inhibitors of farnesyl-protein transferase” (Merck & Co., Inc., priority 1992, dated 1996).

Experiments:
[1] = test system: Ras farnesylation in the v-ras cell line; assay: In vivo ras farnesylation assay (v-ras cell line); format: cell-based; settings: v-ras cells; 4 h pretreatment at 37° C., then 20 h labelling; read-out: IC50, Inhibition of Ras Farnesylation in the v-ras cell line
Description: In vivo ras farnesylation assay
The cell line used in this assay was the v-ras line, which expressed vital Ha-ras p21. The assay was performed essentially as described in DeClue, J. E. et. al., Cancer Research 51, 712-717, (1991). Cells in 10 cm dishes at 50-75% confluency were treated with the test compound (final concentration of solvent, methanol or dimethyl sulfoxide, was 0.1%). After 4 hours at 37° C., the cells were labelled in 3 ml methionine-free DMEM supplemeted with 10% regular DMEM, 2% fetal bovine serum and 400 μCi ^35 S!methionine (1000 Ci/mmol). After an additional 20 hours, the cells were lysed in 1 ml lysis buffer (1% NP40/20 mMHEPES, pH 7.5/5 mM MgCl2 /1 mM DTT/10 μg/ml aprotinen/2 μg/ml leupeptin/2 μg/ml antipain/0.5 mM PMSF) and the lysates cleared by centrifugation at 100,000×g for 45 min. Aliqouts of lysates containing equal numbers of acid-precipitable counts were bought to 1 ml with IP buffer (lysis buffer lacking DTT) and immunoprecipitated with the ras-specific monoclonal antibody Y13-259 (Furth, M. E. et. al., J. Virol. 43, 294-304, (1982)). Following a 2 hour antibody incubation at 4° C., 200 μl of a 25% suspension of protein A-Sepharose coated with rabbit anti rat IgG was added for 45 min. The immunoprecipitates were washed four times with IP was buffer ([…] HEPES, pH 7.5/1 mM EDTA/ 1% Triton X-100.0.5% deoxycholate/0.1%/SDS/0.1M NaCl) boiled in SDS-PAGE sample buffer and loaded on 13% acrylamide gels. When the dye front reached the bottom, the gel was fixed, soaked in Enlightening, dried and autoradiographed. The intensities of the bands corresponding to farnesylated and nonfarnesylated ras proteins were compared to determine the percent inhibition of farnesyl transfer to protein.

[2] = molecular target: recombinant human farnesyl transferase (Homo sapiens, UniProt P49354+P49356); assay: In vitro inhibition of ras farnesyl transferase; format: biochemical; settings: read-out: ID50, Inhibition of RAS farnesylation (concentration which gives 50% inhibition of FTase)
Description: In vitro inhibition of ras farnesyl transferase
The assay was conducted as described in Pompliano, et. al., Biochemistry 31, 3800 (1992) with the exception of utilizing recombinant human farnesyl transferase in place of the partially purified bovine enzyme described therein.

EMG-CoA reductase = settings: cited from earlier work

Row | IC50 [2] | Compound | IC50 [1] | other results
1 |  | CC[C@H](C)[C@@H](/C=C/[C@@H](Cc1ccccc1)C(=O)N[C@@H](CCSC)C(=O)OC)NC[C@@H](N)CS [5(S)-2(R)-amino-3-mercaptopropylamino!-6(S)-methyl-2(R)-benzyl-3,4-E-octenoyl-methionine, methyl ester] | 1000 nM | 
2 |  | CCCC[C@H](/C=C/[C@@H](NC[C@@H](N)CS)[C@@H](C)CC)C(=O)N[C@@H](CCSC)C(=O)OC [5(S)-2(R)-amino-3-mercaptopropylamino!-6(S)-methyl-2(R)-n-butyl-3,4-E-octenoyl-methionine, methyl ester] | 1000 nM | 
3 | 5 nM | CC(C)[C@H](/C=C/[C@@H](NC[C@@H](N)CS)C(C)C)C(=O)N[C@@H](CCO)C(=O)O [5(S)-2(R)-amino-3-mercaptopropylamino!-6-methyl-2(R)-i-propyl-3,4-E-heptenoyl-homoserine] |  | 
4 | 1.5 nM | CCCC[C@H](/C=C/[C@@H](NC[C@@H](N)CS)[C@@H](C)CC)C(=O)N[C@@H](CCO)C(=O)O [5(S)-2(R)-amino-3-mercaptopropyl-amino!-6(S)-methyl-2(R)-n-butyl-3,4-E-octenoyl-homoserine] |  | 
5 |  | CC[C@H](C)C(=O)O[C@H]1CCC=C2C=C[C@H](C)[C@H](CC[C@@H]3C[C@@H](O)CC(=O)O3)[C@H]21 [compactin] |  | inhibition of EMG-CoA reductase (EMG-CoA reductase): inhibit EMG-CoA reductase
6 |  | CCC[C@H](/C=C/[C@@H](NC[C@@H](N)CS)[C@@H](C)CC)C(=O)N[C@H]1CCOC1=O [5(S)-2(R)-amino-3-mercaptopropylamino!-6(S)-methyl-2(R)-n-propyl-3,4-E-octenoyl-homoserine lactone] | 5000 nM | 
7 | 1.9 nM | CC[C@H](C)[C@@H](/C=C/[C@@H](Cc1ccccc1)C(=O)N[C@@H](CCSC)C(=O)O)NC[C@@H](N)CS [5(S)-2(R)-amino-3-mercaptopropylamino!-6(S)-methyl-2(R)-benzyl-3,4-E-octenoyl-methionine] |  | 
8 | 4 nM | CCC[C@H](/C=C/[C@@H](NC[C@@H](N)CS)[C@@H](C)CC)C(=O)N[C@@H](CCO)C(=O)O [5(S)-2(R)-amino-3-mercaptopropylamino!-6(S)-methyl-2(R)-n-propyl-3,4-E-octenoyl-homoserine] |  | 
9 |  | CC[C@H](C)[C@@H](/C=C/[C@H](C(=O)N[C@@H](CCSC)C(=O)OC)C(C)C)NC[C@@H](N)CS [5(S)-2(R)-amino-3-mercaptopropylamino!-6(S)-methyl-2(R)-i-propyl-3,4-E-octenoyl-methionine, methyl ester] | 100 nM | 
10 |  | CC[C@H](C)C(=O)O[C@H]1C[C@@H](C)C=C2C=C[C@H](C)[C@H](CC[C@@H]3C[C@@H](O)CC(=O)O3)[C@H]21 [lovastatin] |  | inhibition of EMG-CoA reductase (EMG-CoA reductase): inhibit EMG-CoA reductase
11 |  | CC[C@H](C)[C@@H](/C=C/[C@H](C(=O)N[C@H]1CCOC1=O)C(C)C)NC[C@@H](N)CS [5(S)-2(R)-amino-3-mercaptopropylamino!-6(S)-methyl-2(R)-i-propyl-3,4-E-octenoyl-homoserine lactone] | 1000 to 2500 nM | 
12 | 2.5 nM | CCCC[C@H](/C=C/[C@@H](NC[C@@H](N)CS)[C@@H](C)CC)C(=O)N[C@@H](CCSC)C(=O)O [5(S)-2(R)-amino-3-mercaptopropyl-amino!-6(S)-methyl-2(R)-n-butyl-3,4-E-octenoyl-methionine] |  | 
13 | 20 nM | CC[C@H](C)[C@@H](/C=C/[C@H](C(=O)N[C@@H](CCSC)C(=O)O)C(C)C)NC[C@@H](N)CS [5(S)-2(R)-amino-3-mercaptopropylamino!-6(S)-methyl-2(R)-i-propyl-3,4-E-octenoyl-methionine] |  | 
14 |  | CC(C)[C@H](/C=C/[C@@H](NC[C@@H](N)CS)C(C)C)C(=O)N[C@H]1CCOC1=O [5(S)-2(R)-amino-3-mercaptopropylamino!-6-methyl-2(R)-i-propyl-3,4-E-heptenoyl-homoserine lactone] | 1000 nM | 
15 |  | CC[C@H](C)[C@@H](/C=C/[C@@H](Cc1ccccc1)C(=O)N[C@H]1CCOC1=O)NC[C@@H](N)CS [5(S)-2(R)-amino-3-mercaptopropylamino!-6(S)-methyl-2(R)-benzyl-3,4-E-octenoyl-homoserine lactone] | 5000 to 10000 nM | 
16 | 3.5 nM | CC[C@H](C)[C@@H](/C=C/[C@H](C(=O)N[C@@H](CCO)C(=O)O)C(C)C)NC[C@@H](N)CS [5(S)-2(R)-amino-3-mercaptopropyl-amino!-6(S)-methyl-2(R)-i-propyl-3,4-E-octenoyl-homoserine] |  | 
